Laboratory results: patent publication US5744023A, “Method for separation and recovery of organogermanium compound” (Asai Germanium Research Institute Co., Ltd., priority 1994, dated 1998)

How the values were obtained:
[1] = acute oral toxicity (LD50) in mice; conditions: mouse, in vivo, orally administered
Source text: (§1) Since these organogermanium compounds are an expensive and valuable resource, it is desirable that they can be separated and recovered from respective reaction mixtures for reutilization. However, both the saccharides and the organogermanium compounds are organic compounds of fairly high molecular weights and no method for effective separation of the two kinds of the compounds is known.

[2] = acute oral toxicity (LD50) in rats; conditions: rat, in vivo, orally administered
Source text: as §1

With `O=C(O)C[CH2][Ge](=[O])[O][Ge](=[O])[CH2]CC(=O)O` [Compound 1, 2-carboxyethylgermanium sesquioxide] the LD50 [1] was ≥ 6000 mg/kg and the LD50 [2] was ≥ 10000 mg/kg.
